This is an account of results in PMC5508548 (Bioorganic & medicinal chemistry letters, 2017).

One series is described as follows: In vitro clearance, rat. Particulars: for CLHEP, rat: in vitro predicted, well-stirred equation without fuplasma/fumic terms; for CLHEP, rat / CLint scaled: rat; for CLint scaled: liver microsomes. It is filed as in vitro ADME.
Series [1] can be described thus: In vitro clearance, human. It counts as in vitro ADME. To be noted: for CLHEP, human: in vitro predicted; for CLint scaled: liver microsomes.
A short description of series [2]: IV pharmacokinetics in SD rat. It counts as in vivo. Particulars: Sprague-Dawley, plasma.
The test system of the next series is CYP450s (panel). In words: CYP450 inhibition profile. It counts as in vitro ADME.
The target in the next series is cyno M4 (Macaca fascicularis, UniProt G7PQB4). Kind of series: ACh CRC fold-shift Ca2+ mobilization and ACh competition binding. It is filed as cell-based, cynomolgus monkey. To be noted: operational model cooperativity; n=3–4. A general note: Calcium flux is commonly read through the fluorescence of an indicator in the cells.
The subject of a further series is rat M1-3,5. In words: Muscarinic subtype selectivity, rat M1-3,5. It counts as cell-based. To be noted: read-out: EC50 at rat M1-3,5.
The test system of the next series is human M1-3,5. In words: Muscarinic subtype selectivity, human M1-3,5. It counts as cell-based. To be noted: read-out: EC50 at human M1-3,5.
The subject of another series is dog M2. In words: Muscarinic subtype selectivity, dog M2. It counts as cell-based. Particulars: data not shown.
The next series relates to cyno M2. Kind of series: Muscarinic subtype selectivity, cyno M2. It counts as cell-based, cynomolgus monkey. To be noted: data not shown.
The next series concerns GABAA receptor. Kind of series: GABAA functional assay. It counts as biochemical. Particulars: at 10 μM.
The next series concerns TA98 and TA100 strains. Kind of series: Mini-Ames assay. Particulars: TA98 and TA100 strains ± S9.
The next series relates to CYP 1A2/2B6/3A4. Kind of series: CYP induction in cryopreserved human hepatocytes. It is filed as in vitro ADME. To be noted: 48 hr incubation, enzyme activity readout.
The next series deals with CYP1A2, CYP2B6, CYP3A4. In words: CYP induction in cryopreserved human hepatocytes. Particulars: human. It is filed as in vitro ADME.
Series [3] is described as follows: Oral pharmacokinetics in rat. It counts as in vivo.
Series [4] is described as follows: IV and PO pharmacokinetics in dog. It is filed as in vivo.
A short description of series [5]: IV and PO pharmacokinetics in cynomolgus monkey. It counts as in vivo.
Series [6] can be described thus: In vitro metabolite identification in cryopreserved hepatocytes. It counts as in vitro ADME, rat, dog, cynomolgus monkey, human.
The next series has as its system CYP450. In words: Human CYP450 phenotyping. It is filed as in vitro ADME.
Series [7] is described as follows: Reactive metabolism/bioactivation. It is filed as in vitro ADME. Particulars: human hepatic microsomes.
For series [8], the system named is L-DOPA-induced dyskinesia. To be noted: NHPs, 10 mg/kg IV; cited from earlier work.
For series [9], the system named is L-DOPA-induced dyskinesia. Particulars: PD-LID mice and NHPs; cited from earlier work.

The CLint scaled is the capacity of the preparation to metabolise the compound, expressed as a volume cleared per time. Broadly, the IC50 is the concentration that inhibits the measured activity by half. The term EC50 denotes the midpoint of the concentration-response curve.

As to `Cc1nnc2sc(C(=O)NCc3ccc(-c4ccc(F)nc4)cc3)c(N)c2c1C` [8m], in “In vitro clearance, rat”, the “CLHEP, rat” value is given as 37.7 mL/min/kg and the CLint scaled was found to be 81.6 mL/min/kg. Besides, in [1], the “CLHEP, human” value is recorded as 17.1 mL/min/kg and the CLint scaled was 20.2 mL/min/kg. The compound also displayed a clearance in series [2] of 1.7 mL/min/kg.

For the compound `Cc1nnc2sc(C(=O)NCc3ccc(-c4ccncc4)cc3)c(N)c2c1C` [8f], in the series “In vitro clearance, rat”, the “CLHEP, rat” value is 59.9 mL/min/kg and the CLint scaled amounted to 415 mL/min/kg. Also, in series [1], the “CLHEP, human” value is recorded as 15.2 mL/min/kg and the CLint scaled came to 20.1 mL/min/kg. Further, in the series on CYP450s (panel), the IC50 is < 10 µM. For the same compound, in [2], the clearance is 9 mL/min/kg.

`Cc1nnc2sc(C(=O)NCc3ccc(-c4cccnc4F)cc3)c(N)c2c1C` [8p, 5-amino-N-(4-(2-fluoropyridine-3-yl)benzyl)-3,4-dimethylthieno[2,3-c] pyridazine-6-carboxamide]: the “α at cyno M4” value on cyno M4 amounted to 28.2. Also, the “β at cyno M4” value on cyno M4 is reported as 2.5. Moreover, the EC50 in the series on rat M1-3,5 and in the series with human M1-3,5 was > 30 µM in each case. Besides, the “activity at dog M2” value in the series on dog M2 is “inactive”. For the same compound, the “activity at cyno M2” value in the series with cyno M2 is “inactive”. Further, in the series with GABAA receptor, the “GABAA functional assay activity” value is given as “no activity”. Moreover, the mini-Ames mutagenicity entry in the series with TA98 and TA100 strains was “negative”. Also, the “CYP 1A2/2B6/3A4 induction Emaxs” value with CYP 1A2/2B6/3A4 is < 2. The concentration for a half-maximal effect (EC50) at 48 h in the series with CYP1A2, CYP2B6, CYP3A4 is > 50 µM. Also, the “CLHEP, rat” value in “In vitro clearance, rat” is 46.0 mL/min/kg. The “predicted rat CLhep, revised prediction method” value in the series “In vitro clearance, rat” (inclusion of binding terms in the well-stirred model) is on record as 0.49 mL/min/kg. For the same compound, the CLint scaled came out at 134 mL/min/kg in the series “In vitro clearance, rat” and 19.2 mL/min/kg in [1]. Further, the “CLHEP, human” value in series [1] is given as 14.8 mL/min/kg. Also, the IC50 with CYP450s (panel) was ≥ 11 µM. The clearance in series [2] is 1.6 mL/min/kg; in series [4] (plasma, iv), 5.5 mL/min/kg; in series [5] (plasma, iv), 9.3 mL/min/kg. Also, the oral bioavailability in series [3] (10 mg/kg solution dose) is reported as 61 % F; in [3] (HCl salt of 8p dosed as a suspension), 54 %F; in [4] (3 mg/kg suspension dose of the HCl salt), 47 %F; in series [5] (10 mg/kg solution dose of HCl salt), 4.7 %F. Besides, in [6] (cryopreserved hepatocytes, multiple species), the human unique metabolites entry is given as “no evidence for human unique metabolites”. Besides, the “turnover in cryopreserved hepatocytes” value in series [6] (rat, dog, cynomolgus monkey, human hepatocytes) is “low turnover”. Further, the “CYPs contributing to metabolism” value in the series with CYP450 is 3A4 (predominant), 2D6, 2C19, 2C9 and 1A2. Besides, in series [7], the GSH conjugates result is given as “no significant levels of GSH conjugates”. The “dyskinesia scores and involuntary movements” value in series [8] is “significantly reduces dyskinesia scores and involuntary movements”. For the same compound, the “deficits in synaptic plasticity and behavior” value in series [9] is “ameliorates deficits in synaptic plasticity and behavior”.

As for `Cc1nnc2sc(C(=O)NCc3ccc(-c4ccnc(F)c4)cc3)c(N)c2c1C` [8k], in “In vitro clearance, rat”, the “CLHEP, rat” value was 31.5 mL/min/kg and the CLint scaled came to 57.1 mL/min/kg. Besides, in [1], the “CLHEP, human” value was 17.8 mL/min/kg and the CLint scaled worked out at 19.6 mL/min/kg. Also, the clearance in series [2] is 3.6 mL/min/kg.
